Consider 25 compounds from PubChem BioAssay (NCI).

Holding throughout (test): growth of human tumour cells (NCI), 48 h
The subject of assay [1] is A498 renal.
Assay [2] has as its system HCT-116 colon.
In assay [3] the test system is KM12 colon.
Assay [4] relates to MALME-3M melanoma.
For assay [5], the system named is MCF7 breast.
Assay [6] relates to NCI-H23 lung.
Assay [7] relates to SF-295 CNS.
Assay [8] concerns SNB-19 CNS.
The subject of assay [9] is SNB-75 CNS.
Assay [10] has as its system SW-620 colon.

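All cell lines were grown in 96-well plates and treated with compound for 48 hours. GI50: concentration for 50% inhibition of growth. The concentration for full growth arrest is given as TGI.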 Where only a bound is given, the exact number is not on record here.

As for `Nc1c(S(=O)(=O)O)cc(Nc2cccc(S(=O)(=O)/C=C/S(=O)(=O)O)c2)c2c1C(=O)c1ccccc1C2=O`, the TGI in [1], in [2], in assay [3], in assay [4], in assay [5] and in [6] was over 100 µM in each case. Moreover, the TGI in assay [7], in [8], in assay [9] and in [10] was over 100 µM each time.
Take `Nc1ccc(-n2c(=O)oc3ccc(Cl)cc3c2=O)c(Cl)c1`: the GI50 in [1] is 0.0372 µM; in [2] it was 0.108 µM; in [3], 0.255 µM; in assay [4], 0.0838 µM; in assay [5], 0.262 µM; in assay [6] it was 0.0921 µM. Further, the GI50 was 1.07 µM in assay [7], 0.122 µM in [8], 0.0894 µM in assay [9] and 0.161 µM in assay [10]. In addition, the TGI in assay [1] was 0.114 µM; in assay [2] it was 0.52 µM; in assay [3], 0.908 µM; in assay [4], 0.362 µM; in [5], over 31.8 µM; in [6], 0.486 µM. For the same compound, the TGI was 2.8 µM in assay [7], over 100 µM in [8], 0.41 µM in assay [9] and 8.18 µM in assay [10].
Consider `CCS(=O)(=O)c1c2cc(OC)ccc2nc2ccc(OC)cc12`, for which the TGI in [1], in [2], in [3], in [4], in [5] and in [6] was over 100 µM throughout. Also, the TGI in assay [7], in [8], in assay [9] and in assay [10] was over 100 µM in each case.
As for `CC(=O)NC1=CC(=O)c2cc(C)cc(O)c2C1=O`, the TGI in assay [1] stood at 27.5 µM; in [2], 16.3 µM; in assay [3] it was 33.4 µM; in [4], 4.33 µM; in [5] it was 7.8 µM; in assay [6] it was 5.21 µM. Further, the TGI was 39.4 µM in assay [7], over 62.7 µM in assay [8], 37 µM in [9] and 10.6 µM in assay [10].
Take `CCOc1cc(C2SCC(=O)N2c2nc3cc4sc(N5C(=O)CSC5c5ccc(O)c(OCC)c5)nc4cc3s2)ccc1O` (stereo unspecified): the TGI in [1] was over 100 µM; in assay [2], over 100 µM; in assay [3] it was over 100 µM; in [4], over 100 µM; in assay [5] it was over 86.3 µM; in [6], over 100 µM. The TGI in assay [7], in assay [8], in [9] and in [10] was over 100 µM in each case.
As to `CC1CCC2(CC1)N=C1CCC(C)CC1C1(CCC(C)CC1)N2` (stereo unspecified), the TGI in assay [1], in assay [2], in assay [3], in [4], in assay [5] and in assay [6] was over 100 µM throughout. Moreover, the TGI in assay [7], in [8], in assay [9] and in assay [10] was over 100 µM each time.
On to `CC(C)C(C/C=C1\CC(CO)(COC(=O)CC(C(C)C)C(C)C)OC1=O)C(C)C` (stereo unspecified), for which the TGI turned out to be 25.5 µM in [1]; 27.8 µM in [2]; 28.6 µM in [3]; 14.5 µM in [4]; 31.3 µM in assay [5]; 29 µM in assay [6]. Moreover, the TGI in [7] is 20.2 µM; in assay [8], 26.5 µM; in [9], 22.9 µM; in assay [10], 21.6 µM.
Consider `CC1(C)[C@@H]2C[C@H]1C(Cc1cccc(C[C@H]3c4cc(-c5ccccn5)ncc4[C@H]4C[C@@H]3C4(C)C)c1)c1cc(-c3ccccn3)ncc12` (stereo partly specified), for which the TGI in [1] was over 57 µM; in [2] it was over 100 µM; in assay [3], over 76.9 µM; in [4] it was 44.9 µM; in [5], over 100 µM; in assay [6], over 63.9 µM. The TGI is over 54.3 µM in assay [7], over 100 µM in assay [8], over 100 µM in assay [9] and over 45.6 µM in [10]. In assay [4], the GI50 was 3.65 µM.
Regarding `O=C(Nc1cccc(-n2ccc3c(NC(=O)c4ccccc4)nccc32)c1)c1cc(N2CCOCC2)cc(C(F)(F)F)c1`, the GI50 was 0.0315 µM in assay [1]; 0.0347 µM in [2]; 0.0628 µM in [3]; 1.25 µM in [4]; 0.0332 µM in assay [5]; 0.613 µM in [6]. In addition, the GI50 in assay [7] is 0.039 µM; in [8], 0.379 µM; in [9] it was 0.0362 µM; in assay [10] it was 0.0484 µM. The TGI is 0.729 µM in assay [1]; over 29.8 µM in [2]; over 100 µM in [4]; over 100 µM in assay [5]; over 100 µM in assay [6]; 2.16 µM in assay [7]. Further, the TGI in assay [8] was over 100 µM; in assay [9] it was 0.678 µM; in assay [10], over 100 µM.
`c1ccc(C2=C(c3ccccc3)P(c3ccccc3)C2)cc1` (stereo unspecified): the TGI in assay [1], in [2], in [3], in assay [4], in assay [5] and in assay [7] was over 100 µM in each case. Also, the TGI in [9] and in assay [10] was over 100 µM each time.
For the compound `CCCCCCOc1ccc(NC2=C(Cl)C(=O)c3ncccc3C2=O)cc1`, the TGI was over 10 µM in [1]; 2.38 µM in assay [2]; 3.14 µM in assay [3]; 3.77 µM in [4]; 2.63 µM in assay [5]; 4.34 µM in [6]. Also, the TGI in assay [7] came out at 3.59 µM; in [8], 4.51 µM; in assay [9], 3.93 µM; in [10], 5.38 µM.
In the case of `O=C1C(N=Nc2ccc(-c3nc4ccccc4[nH]3)cc2)NC(=S)N1c1ccccc1` (stereo unspecified), the TGI was over 100 µM in assay [1]; over 100 µM in [2]; 37.5 µM in assay [3]; over 100 µM in assay [4]; 24.8 µM in [5]; over 100 µM in [6]. Further, the TGI is over 100 µM in [7], over 100 µM in assay [8], over 100 µM in assay [9] and 80.1 µM in assay [10].
Turning to `COc1cc(-c2nc3nc(N4CCN(C)CC4)ccc3[nH]2)c(OC)c2[nH]c(COC(C)=O)nc12`, the TGI was over 100 µM in assay [1]; 58.6 µM in assay [2]; 83.3 µM in assay [3]; 67.9 µM in assay [4]; 43.9 µM in [5]; over 100 µM in [6]. Further, the TGI in assay [7], in assay [8], in [9] and in assay [10] was over 100 µM each time.
On to `CN(C)CCOC1(CC2CCCCC2)CCC(C(C)(C)C)CC1` (stereo unspecified), for which the TGI was determined as 12.9 µM in assay [1]; 14.7 µM in assay [2]; 14.4 µM in [3]; 6.65 µM in [4]; 7.73 µM in assay [5]; 21.8 µM in [6]. Also, the TGI in [7] was found to be 12 µM; in [8], 21.9 µM; in [9] it was 19.1 µM; in assay [10], 12.7 µM.
With `COc1ccc2c(c1)CC[C@@H]1[C@@H]2CC[C@]2(C)C(=O)/C(=C/c3cc(OC)c(OC)c(OC)c3)C[C@@H]12`, the TGI is over 100 µM in assay [1]; over 100 µM in assay [2]; 82.9 µM in [3]; 35 µM in [4]; over 100 µM in assay [5]; 53.3 µM in assay [6]. The TGI in assay [7] was 74.6 µM; in assay [8], over 100 µM; in assay [9], 38.9 µM; in assay [10], over 100 µM.
`COC(=O)CCN(CCC(=O)OC)C1CC1`: the TGI in [1], in assay [2], in assay [3], in assay [4], in [5] and in assay [6] was over 100 µM in each case. In addition, the TGI in assay [7], in [8], in [9] and in assay [10] was over 100 µM throughout.
Turning to `CC(=O)NC1=C(C)C(=O)c2c(nc3n2CC[C@H]3OC(C)=O)C1=O`, the TGI in assay [1] turned out to be 30.5 µM; in assay [2], 3.14 µM; in [3] it was 3.52 µM; in assay [4], 3.14 µM; in assay [5], 3.37 µM; in [6], 8.41 µM. Besides, the TGI was determined as 5.49 µM in [7], 10.8 µM in assay [8], 9.18 µM in assay [9] and 3.26 µM in [10].
Regarding `O=[N+]([O-])c1ccc(Cl)cc1C=NC12CC3CC(CC(C3)C1)C2`, the TGI in assay [1] was over 100 µM; in assay [2] it was 62.9 µM; in assay [3], over 91 µM; in assay [4] it was over 94 µM; in assay [5], over 100 µM; in assay [6] it was 98.1 µM. In addition, the TGI in [7], in assay [8], in assay [9] and in assay [10] was over 100 µM throughout.
Turning to `N#Cc1nc(/C=C/c2ccccc2)oc1N`, the TGI in assay [1], in assay [2], in assay [3], in [4], in assay [5] and in assay [6] was over 100 µM in each case. In addition, the TGI in assay [7], in assay [8], in assay [9] and in assay [10] was over 100 µM in each case.
On to `Cc1n(CC(=O)c2ccccc2)nc2sc(N)n[n+]12`, for which the TGI in assay [1], in assay [2], in assay [3], in assay [4], in assay [5] and in assay [6] was over 100 µM each time. The TGI in assay [7], in [8], in [9] and in assay [10] was over 100 µM throughout.
With `CC(=N\N=C\c1ccccn1)/C(C)=N/N=C(C)/C(C)=N/N=C(C)/C(C)=N/N=C/c1ccccn1`, the TGI in [1], in assay [2], in [3], in assay [4], in assay [5] and in assay [6] was over 100 µM in each case. Further, the TGI in [7], in assay [8], in [9] and in assay [10] was over 100 µM throughout.
In the case of `CC(C)(C)OC(=O)NCC(=O)N1CCCN(C(=O)CNC(=O)OC(C)(C)C)CC1`, the TGI in assay [1], in [2], in assay [3], in [4], in assay [5] and in [6] was over 100 µM each time. Also, the TGI in assay [7], in [8], in [9] and in assay [10] was over 100 µM throughout.
Turning to `NCCCCNC1(c2cc3ccccc3s2)CCCCC1`, the TGI was 6.04 µM in [1]; 14.9 µM in assay [2]; 10.7 µM in assay [3]; 4.01 µM in assay [4]; 9.75 µM in [5]; 28.9 µM in [6]. The TGI in assay [7] was 8.83 µM; in assay [8], 21.1 µM; in assay [9] it was 9.9 µM; in assay [10], 14.6 µM.
Consider `COc1ccc2c(c1)-c1nn(CCN(C)C)c3ccc(C(=O)NCCCN(C)CCCNC(=O)c4ccc5c6c(nn5CCN(C)C)-c5cc(OC)ccc5Nc46)c(c13)N2`, for which the TGI was determined as 0.633 µM in assay [1]; 1.74 µM in assay [2]; 0.762 µM in assay [4]; 1.97 µM in [5]; 0.384 µM in assay [6]; 3.38 µM in assay [7]. Also, the TGI in [8] was 1.04 µM; in assay [9] it was 0.393 µM; in assay [10], 1.54 µM.
With `C#CCOC(=O)C(N)CCCN=C(N)N` (stereo unspecified), the TGI in assay [1], in [2], in assay [3], in assay [4], in assay [5] and in [6] was over 100 µM each time. The TGI in assay [8], in assay [9] and in assay [10] was over 100 µM in each case.
